Measured values: paper PMC7402526, “An in vitro quantitative systems pharmacology approach for deconvolving mechanisms of drug-induced, multilineage cytopenias” (PLoS Computational Biology, 2020)

Experiments:
[1] = system: hematopoietic stem cells (HSCs); assay: Multi-lineage toxicity assay (MLTA), HSCs: concentration-response and QSP model fit; format: cell-based, human; set-up: EmaxAP,HSC / EmaxT,HSC / Emax_drug_HSC: unitless, 0–2; ≤1 anti-proliferative, >1 adds cell killing
How it was run: (§1)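 Freeze-thawed primary human bone marrow CD34+ cells were grown in SFEM II with a multi-lineage cytokine cocktail, drug added day 0, six days at 37°C. Lineage counts came from 17-parameter flow with TruCount beads, vehicle-normalized per donor, then fitted by an Emax-based QSP model.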

[2] = system: monocyte progenitors (monocyte prog); assay: MLTA, MonoP: concentration-response and QSP model fit; format: cell-based, human; settings: Homo sapiens, Monocyte, 144 h
How it was run: (§2)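 Drug was added at time 0 to thawed human bone marrow CD34+ cells in SFEM II plus a cytokine cocktail. After 6 days at 37°C, subsets were counted by surface-marker flow with TruCount beads. Vehicle-normalized, donor-pooled data then fed an Emax model separating anti-proliferative from cell-killing effects.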

monocytes (monocyte-lin) = assay: MLTA, Mono: concentration-response and QSP model fit; format: cell-based, human; settings: Homo sapiens, Monocyte, 144 h
How it was run: as §2

[3] = system: neutrophils (neutrophil-lin); assay: MLTA, Neut: concentration-response and QSP model fit; format: cell-based, human; settings: Homo sapiens, Neutrophil, 144 h
How it was run: as §1

[4] = system: early erythroid cells (Eryth I); assay: MLTA, ErythI: concentration-response and QSP model fit; format: cell-based, human; settings: Homo sapiens, 144 h
How it was run: as §2

[5] = system: late erythroid cells (Eryth II); assay: MLTA, ErythII: concentration-response and QSP model fit; format: cell-based, human; settings: Homo sapiens, 144 h
How it was run: as §1

[6] = system: total dead cells (totalDeadCells); assay: MLTA, total dead cells concentration-response; format: cell-based; settings: Homo sapiens, 144 h, 6 days, normalized to vehicle control, read-out: total_dead normalized cell count
How it was run: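 Freeze-thawed primary human bone marrow CD34+ cells in SFEM II with cytokine cocktail, drug added day 0, 6 days at 37°C, 5% CO2. Live/dead counts by 17-parameter flow cytometry with DAPI exclusion, bead-normalized, volume-corrected to cells/mL. Normalized per donor to mean of six vehicle wells; 2–7 donors pooled.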

[7] = system: human bone marrow-derived CD34+ cells differentiated into multiple hematopoietic lineages; assay: MLTA, overall effects across hematopoietic lineages; format: cell-based; settings: QSP model fit; EmaxT > 1.0 = cell-killing
How it was run: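 Thawed primary human bone marrow CD34+ cells grown in SFEM II with a multi-lineage cytokine cocktail, drug added day 0, 6 days at 37°C, 5% CO2. Subsets counted by 17-parameter flow cytometry with TruCount beads, normalized to six vehicle wells per donor (2–7 donors); Emax model fitted per cell type.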

CCc1cnn2c(NCc3ccc[n+]([O-])c3)cc(N3CCCC[C@H]3CCO)nc12 [dinaciclib]
activity at 0.0002 µM ([1]; Homo sapiens, Hematopoietic stem cell, 144 h, dose 0.2 nM, 6 days, normalized to vehicle control, read-out: HSCs normalized cell count): 89.5% | activity at 0.001 µM ([1]; Homo sapiens, Hematopoietic stem cell, 144 h, dose 1 nM, 6 days, normalized to vehicle control, read-out: HSCs normalized cell count): 106% | activity at 0.005 µM ([1]; Homo sapiens, Hematopoietic stem cell, 144 h, dose 5 nM, 6 days, normalized to vehicle control, read-out: HSCs normalized cell count): 115% | activity at 0.025 µM ([1]; Homo sapiens, Hematopoietic stem cell, 144 h, dose 25 nM, 6 days, normalized to vehicle control, read-out: HSCs normalized cell count): 61.2% | activity at 0.1 µM ([1]; Homo sapiens, Hematopoietic stem cell, 144 h, dose 100 nM, 6 days, normalized to vehicle control, read-out: HSCs normalized cell count): 1.89% | activity at 0.5 µM ([1]; Homo sapiens, Hematopoietic stem cell, 144 h, dose 500 nM, 6 days, normalized to vehicle control, read-out: HSCs normalized cell count): 5.17% | activity at 2.5 µM ([1]; Homo sapiens, Hematopoietic stem cell, 144 h, dose 2500 nM, 6 days, normalized to vehicle control, read-out: HSCs normalized cell count): 1.3% | Emax ([1]; Homo sapiens, Hematopoietic stem cell, 144 h, parameter from QSP model fitting, read-out: Emax_drug_HSC): 103% | EmaxAP,HSC ([1]; anti-proliferation component, min(1, EmaxT)): 1.000 | activity at 0.0002 µM ([2]; dose 0.2 nM, 6 days, normalized to vehicle control, read-out: MonoPs normalized cell count): 96.5% | activity at 0.001 µM ([2]; dose 1 nM, 6 days, normalized to vehicle control, read-out: MonoPs normalized cell count): 106% | activity at 0.005 µM ([2]; dose 5 nM, 6 days, normalized to vehicle control, read-out: MonoPs normalized cell count): 125% | activity at 0.025 µM ([2]; dose 25 nM, 6 days, normalized to vehicle control, read-out: MonoPs normalized cell count): 61.8% | activity at 0.1 µM ([2]; dose 100 nM, 6 days, normalized to vehicle control, read-out: MonoPs normalized cell count): 0.141% | activity at 0.5 µM ([2]; dose 500 nM, 6 days, normalized to vehicle control, read-out: MonoPs normalized cell count): 0.19% | activity at 2.5 µM ([2]; dose 2500 nM, 6 days, normalized to vehicle control, read-out: MonoPs normalized cell count): 0.231% | Emax ([2]; parameter from QSP model fitting, read-out: Emax_drug_MonoP): 0.04% | activity at 0.0002 µM (monocytes (monocyte-lin); dose 0.2 nM, 6 days, normalized to vehicle control, read-out: Mon normalized cell count): 90.7% | activity at 0.001 µM (monocytes (monocyte-lin); dose 1 nM, 6 days, normalized to vehicle control, read-out: Mon normalized cell count): 106% | activity at 0.005 µM (monocytes (monocyte-lin); dose 5 nM, 6 days, normalized to vehicle control, read-out: Mon normalized cell count): 69.5% | activity at 0.025 µM (monocytes (monocyte-lin); dose 25 nM, 6 days, normalized to vehicle control, read-out: Mon normalized cell count): 8.55% | activity at 0.1 µM (monocytes (monocyte-lin); dose 100 nM, 6 days, normalized to vehicle control, read-out: Mon normalized cell count): 0.496% | activity at 0.5 µM (monocytes (monocyte-lin); dose 500 nM, 6 days, normalized to vehicle control, read-out: Mon normalized cell count): 0.834% | activity at 2.5 µM (monocytes (monocyte-lin); dose 2500 nM, 6 days, normalized to vehicle control, read-out: Mon normalized cell count): 0.535% | Emax (monocytes (monocyte-lin); parameter from QSP model fitting, read-out: Emax_drug_Mono): 48.2% | activity at 0.0002 µM ([3]; dose 0.2 nM, 6 days, normalized to vehicle control, read-out: Neut normalized cell count): 83.8% | activity at 0.001 µM ([3]; dose 1 nM, 6 days, normalized to vehicle control, read-out: Neut normalized cell count): 83.1% | activity at 0.005 µM ([3]; dose 5 nM, 6 days, normalized to vehicle control, read-out: Neut normalized cell count): 24.9% | activity at 0.025 µM ([3]; dose 25 nM, 6 days, normalized to vehicle control, read-out: Neut normalized cell count): 0.684% | activity at 0.1 µM ([3]; dose 100 nM, 6 days, normalized to vehicle control, read-out: Neut normalized cell count): 0.0259% | activity at 0.5 µM ([3]; dose 500 nM, 6 days, normalized to vehicle control, read-out: Neut normalized cell count): 0.0166% | activity at 2.5 µM ([3]; dose 2500 nM, 6 days, normalized to vehicle control, read-out: Neut normalized cell count): 0.0149% | Emax ([3]; parameter from QSP model fitting, read-out: Emax_drug_Neut): 28.1% | activity at 0.0002 µM ([4]; dose 0.2 nM, 6 days, normalized to vehicle control, read-out: ErythI normalized cell count): 112% | activity at 0.001 µM ([4]; dose 1 nM, 6 days, normalized to vehicle control, read-out: ErythI normalized cell count): 104% | activity at 0.005 µM ([4]; dose 5 nM, 6 days, normalized to vehicle control, read-out: ErythI normalized cell count): 73.3% | activity at 0.025 µM ([4]; dose 25 nM, 6 days, normalized to vehicle control, read-out: ErythI normalized cell count): 23.9% | activity at 0.1 µM ([4]; dose 100 nM, 6 days, normalized to vehicle control, read-out: ErythI normalized cell count): 0.828% | activity at 0.5 µM ([4]; dose 500 nM, 6 days, normalized to vehicle control, read-out: ErythI normalized cell count): 0.888% | activity at 2.5 µM ([4]; dose 2500 nM, 6 days, normalized to vehicle control, read-out: ErythI normalized cell count): 0.845% | Emax ([4]; parameter from QSP model fitting, read-out: Emax_drug_ErythroidI): 112% | activity at 0.0002 µM ([5]; dose 0.2 nM, 6 days, normalized to vehicle control, read-out: ErythII normalized cell count): 90% | activity at 0.001 µM ([5]; dose 1 nM, 6 days, normalized to vehicle control, read-out: ErythII normalized cell count): 108% | activity at 0.005 µM ([5]; dose 5 nM, 6 days, normalized to vehicle control, read-out: ErythII normalized cell count): 98.7% | activity at 0.025 µM ([5]; dose 25 nM, 6 days, normalized to vehicle control, read-out: ErythII normalized cell count): 23.2% | activity at 0.1 µM ([5]; dose 100 nM, 6 days, normalized to vehicle control, read-out: ErythII normalized cell count): 0.0437% | activity at 0.5 µM ([5]; dose 500 nM, 6 days, normalized to vehicle control, read-out: ErythII normalized cell count): 0.0109% | activity at 2.5 µM ([5]; dose 2500 nM, 6 days, normalized to vehicle control, read-out: ErythII normalized cell count): 0.0201% | Emax ([5]; parameter from QSP model fitting, read-out: Emax_drug_ErythroidII): 7.1% | activity at 0.0002 µM ([6]; dose 0.2 nM): 108% | activity at 0.001 µM ([6]; dose 1 nM): 106% | activity at 0.005 µM ([6]; dose 5 nM): 78.9% | activity at 0.025 µM ([6]; dose 25 nM): 34.8% | activity at 0.1 µM ([6]; dose 100 nM): 38.7% | activity at 0.5 µM ([6]; dose 500 nM): 34.1% | activity at 2.5 µM ([6]; dose 2500 nM): 39.6% | EmaxT effects across cell types (overall statement) [7]: > 1.0
